Reference: patent US10183915B2, “Axially chiral isomers, and preparation methods therefor and pharmaceutical uses thereof” (MEDSHINE DISCOVERY INC., priority 2015, dated 2019)
Like-named read-outs stand apart in the source and are kept apart here.

Assays:
[1] = Stability of compounds in ethanol solutions (heated; SFC chiral purity); type: physicochemical; conditions: for Enantiomer Excess of Compound: ethanol solution
From the text: Test 3: Evaluation of the Stability of Compounds in Ethanol Solutions.
An appropriate amount of test compound was accurately weighed, added into ethanol to obtain an ethanol solution. The ethanol solution of the compound was stirred in a heated oil bath. At the end of the test, the purity and chiral purity of the compound was detected by high performance liquid chromatography (HPLC) or LC-MS (LCMS) and supercritical fluid chromatography (SFC).

[2] = Stability of compounds in SD rat plasma; type: in vitro ADME; conditions: for Recovery (% remaining): SD rat plasma, 2 μM, 37° C.
Method: (§1) Test 5: Evaluation of the Stability of Compounds in Rat Plasma and Human Plasma
(§2) 2. Experimental Procedures and Methods • 2.1 Prior to the experiment, the frozen plasma stored at −40° C. was thawed at room temperature and incubated in a 37° C. water bath for 5-10 min; centrifuged at 4000 rpm for 5 min, to remove impurities and lipids in the plasma. Measured the value of pH, if required, adjusted it to 7.4±0.1. • 2.2 Prepared 400 μM intermediate solution by diluting 4 μL of the working solution (10 mM) with 96 μL DMSO. • 2.3 Preparation of incubation samples: Remove 3 μL of intermediate solution (400 μM) to mix with 597 μL of blank plasma to achieve 2 μM of final concentration. Incubate each time point samples (0 min, 10 min, 30 min, 60 min, 120 min, in duplicate) at 37° C. in water bath. • 2.4 An aliquot of 100 μL samples of the final spiked plasma for each time point were removed to sample collected plates, added 400 μL of stop solution (200 ng/mL Tolbutamide plus 20 ng/mL Buspirone in 50% ACN/MeOH) to precipitate protein. Mixed thoroughly. • 2.5 Centrifuged each plate at 4,000 rpm for 20 min. Transfered an aliquot of supernatant (100 μL) from each well to sample plate and mixed with 200 μL ultra pure water. Shaked the plate at 800 rpm for about 10 min before submitting to LC-MS/MS analysis. 3. Experimental Data Analysis
(§3) The ratio of the peak area to the internal standard peak area was used to assess the decrease of the test compound to be measured. The % remaining of the test compound after incubation in plasma was calculated using following equation: % Remaining=100×(PAR at appointed incubation time/PAR at T0 time)
(§4) wherein PAR is the peak area ratio of analyte versus internal standard (IS)
(§5) The appointed incubation time points are: 0 min, 10 min, 30 min, 60 min, 120 min; T0: Samples prior to incubation.

[3] = Stability of compounds in DMSO solutions (heated; SFC chiral purity); type: physicochemical; conditions: for Enantiomer Excess of Compound: DMSO solution
Method: Example 4: Evaluation of the Stability of Compounds in DMSO Solutions
An appropriate amount of test compound was accurately weighed, added into DMSO to obtain a DMSO solution. The DMSO solution of the compound was stirred in a heated oil bath. At the end of the test, a sample amount of the DMSO solution was diluted with ethanol and the purity and chiral purity of the compound was detected by high performance liquid chromatography (HPLC) or LC-MS (LCMS) and supercritical fluid chromatography (SFC).

[4] = Stability of solid compounds in ambient temperature (15° C., nitrogen cabinet, dark; SFC chiral purity); type: physicochemical; conditions: for Enantiomer Excess of the Compound: solid
Method: Test 2: Evaluation of the Stability of Solid Compounds in Ambient Temperature.
20 mg of test compound was placed into 5 mL brown transparent sealed container with stopper and stoned in the nitrogen cabinet (15° C.) in the dark. After the preset storage time, about 2 mg of test compound was accurately weighed, added into ethanol to prepare 1 mg/mL ethanol solution. The purity and chiral purity of the compound was detected by high performance liquid chromatography (HPLC) or LC-MS (LCMS) and supercritical fluid chromatography (SFC).

[5] = In vivo pharmacokinetic study in male Sprague-Dawley rats (IV and PO); parameters: species or system Sprague-Dawley rat; conditions: for MRT inf: read-out: MRT0-inf
Method: Test 6: In Vivo Pharmacokinetic Study of the Test Compounds in Rats
To study the pharmacokinetic behavior of the compounds in rats and to evaluate their pharmacokinetic characteristics, their concentrations in plasma were determined by LC/MS/MS.
Appropriate amount of sample was added to a certain amount of pure water, the pH were adjusted to 7-8, to prepare to be 1 mg/mL (filtered and clarified) and 2 mg/mL (with a few particles of suspension) for IV and PO administration. • 2.4 Administration • 18 male SD rats were randomly assigned to 6 treatment groups, 3 rats in each group. Male rats were administrated IV and PO respectively after fasting overnight. The IV dosage was 2 mg/kg, the dose volume was 2 mL/kg, the PO dosage was 10 mg/kg, and the dose volume was 5 mL/kg. 3. Experimental Procedure
For IV group, 250 μL blood samples were collected before administration, and 0.083, 0.25, 0.5, 1, 2, 4, 8, 24 hours after administration, and placed in K2-EDTA anticoagulant tube, centrifuged at 3000 rpm for 15 minutes, plasma was separated, stored at −80° C. For PO Group, blood samples were collected before administration, and 0.25, 0.5, 1, 2, 4, 8, 24 hours after administration, and the other operations were the same as group IV. The content of the test compounds in the plasma of rats after administration of IV and PO were determined by LC/MS/MS method. The linear range of the assay was 6.00-18000 nM, and the lower limit of quantification was 6 nM; the plasma samples were analyzed by pretreatment with precipitated proteins.

[6] = Stability of compounds in human plasma; type: in vitro ADME
Method: as §1, §2, §3, §4, §5

[7] = male SD rats, IV 2 mpk, 2 mg/kg
[8] = male, Sprague-Dawley, rat, plasma, iv, 2 mg/kg, male SD rats, IV 2 mpk
[9] = male, Sprague-Dawley, rat, plasma, po, 10 mg/kg, male SD rats, PO 10 mpk

**Q.** For `O=C(O)CSc1nnc(Br)n1-c1ccc(C2CC2)c2ccccc12` (single isomer, unassigned) [(+)-Lesinurad], which “Enantiomer Excess of Compound” value ([1]; 37° C., 3 days) is on record?
**A.** Unchanged

**Q.** And the “Enantiomer Excess of Compound” value ([1]; 70° C., 3 days)?
**A.** Unchanged

**Q.** And the “Enantiomer Excess of Compound” value ([1]; heating time 0 day)?
**A.** 95.9%

**Q.** What about the “Stability in ethanol solutions (SFC purity)” value ([1]; heating to 37° C. and up to 70° C.) of the same compound?
**A.** very stable

**Q.** And the “Stability after co-incubation with SD-rat plasma” value ([2]; 2 hours)?
**A.** very stable

**Q.** And the “Recovery (% remaining)” value ([2]; 30 min)?
**A.** 100.3%

**Q.** What about the “Recovery (% remaining)” value ([2]; 60 min) of the same compound?
**A.** 99.7%

**Q.** What about the “Recovery (% remaining)” value ([2]; 120 min) of the same compound?
**A.** 101.2%

**Q.** What about the “Enantiomer Excess of Compound” value ([3]; 80° C., 0 h) of the same compound?
**A.** 95.9%

**Q.** What about the “Enantiomer Excess of Compound” value ([3]; 80° C., 2 × 24 h) of the same compound?
**A.** Unchanged

**Q.** What about the “Enantiomer Excess of Compound” value ([3]; 80° C., 4 × 24 h) of the same compound?
**A.** Unchanged

**Q.** What about the “Enantiomer Excess of Compound” value ([3]; 80° C., 2 h) of the same compound?
**A.** Unchanged

**Q.** And the “Enantiomer Excess of Compound” value ([3]; 80° C., 4 h)?
**A.** Unchanged

**Q.** And the “Enantiomer Excess of Compound” value ([3]; 80° C., 8 h)?
**A.** Unchanged

**Q.** And the “Enantiomer Excess of Compound” value ([3]; 80° C., 24 h)?
**A.** Unchanged

**Q.** And the “Enantiomer Excess of Compound” value ([3]; 120° C., 0 h)?
**A.** 95.9%

**Q.** What about the “Enantiomer Excess of Compound” value ([3]; 120° C., 2 × 24 h) of the same compound?
**A.** Unchanged

**Q.** What about the “Enantiomer Excess of Compound” value ([3]; 120° C., 4 × 24 h) of the same compound?
**A.** Unchanged

**Q.** What about the “Enantiomer Excess of Compound” value ([3]; 120° C., 2 h) of the same compound?
**A.** Unchanged

**Q.** And the “Enantiomer Excess of Compound” value ([3]; 120° C., 4 h)?
**A.** Unchanged

**Q.** And the “Enantiomer Excess of Compound” value ([3]; 120° C., 8 h)?
**A.** Unchanged

**Q.** And the “Enantiomer Excess of Compound” value ([3]; 120° C., 24 h)?
**A.** Unchanged

**Q.** What about the “Enantiomer Excess of Compound” value ([3]; 160° C., 0 h) of the same compound?
**A.** 95.9%

**Q.** What about the “Enantiomer Excess of Compound” value ([3]; 160° C., 8 h) of the same compound?
**A.** Unchanged

**Q.** What about the “Stability in DMSO solutions (SFC purity)” value ([3]; heating to 80° C., 120° C. and up to 160° C.) of the same compound?
**A.** very stable

**Q.** What about the “Enantiomer Excess of the Compound” value ([4]; storing time 0 day) of the same compound?
**A.** 95.9%

**Q.** What about the “Enantiomer Excess of the Compound” value ([4]; storing time >80 days) of the same compound?
**A.** Unchanged

**Q.** And the “Stability of the solid powder (SFC purity)” value ([4]; storing over 80 days)?
**A.** very stable

**Q.** And the “Transformation of the atropisomer in vivo” value ([5]; SD rats, IV and PO)?
**A.** no transformation was observed

**Q.** What about the AUC0-inf [5, 7] of the same compound?
**A.** 15.03902 ± 1.0268 µM·h

**Q.** And the Cl [5, 7]?
**A.** 5.50 ± 0.36 mL/min/kg

**Q.** And the Bioavailability ([5]; male SD rats, PO 10 mpk vs IV 2 mpk)?
**A.** 44.65%

**Q.** And the AUC0-inf ([5]; male SD rats, PO 10 mpk, 10 mg/kg)?
**A.** 32.68473 ± 13.43235 µM·h

**Q.** And the C0 [5, 8]?
**A.** 11.5 ± 2.72 µM

**Q.** What about the half-life [5, 8] of the same compound?
**A.** 1.61 ± 0.11 h

**Q.** And the MRT inf [5, 8]?
**A.** 2.08 ± 0.08 h

**Q.** And the Vd ([5]; male, Sprague-Dawley, rat, plasma, iv, 2 mg/kg, male SD rats, IV 2 mpk, read-out: Vdss)?
**A.** 0.69 ± 0.03 L/kg

**Q.** And the Cmax [5, 9]?
**A.** 7.76 ± 5.15 µM

**Q.** What about the half-life [5, 9] of the same compound?
**A.** 2.25 ± 0.02 h

**Q.** What about the MRT inf [5, 9] of the same compound?
**A.** 4.09 ± 0.87 h

**Q.** What about the Tmax ([5]; male, Sprague-Dawley, rat, plasma, po, 10 mg/kg, male SD rats, PO 10 mpk, read-out: Tmax) of the same compound?
**A.** 3 ± 1.73 h

**Q.** What about the “Stability after co-incubation with human plasma” value ([6]; 2 hours) of the same compound?
**A.** very stable

**Q.** What about the “Recovery (% remaining)” value ([6]; human plasma, 2 μM, 37° C., 120 min) of the same compound?
**A.** 100.4%

**Q.** What about the recovery at 0 min, 2 μM ([6]; human, plasma, pH 7.4, human plasma, 2 μM, 37° C., 0 min, read-out: Recovery (% remaining)) of the same compound?
**A.** 100%

**Q.** And the recovery at 10 min, 2 μM ([6]; human, plasma, pH 7.4, human plasma, 2 μM, 37° C., 10 min, read-out: Recovery (% remaining))?
**A.** 100%

**Q.** What about the recovery at 30 min, 2 μM ([6]; human, plasma, pH 7.4, human plasma, 2 μM, 37° C., 30 min, read-out: Recovery (% remaining)) of the same compound?
**A.** 99.5%

**Q.** And the recovery at 60 min, 2 μM ([6]; human, plasma, pH 7.4, human plasma, 2 μM, 37° C., 60 min, read-out: Recovery (% remaining))?
**A.** 99.4%
